Here are results for 2 molecules from US10316070B2, “Dual protected pro-coelenterazine substrates” (PROMEGA CORPORATION, priority 2016, dated 2019).

The target in this assay is T1, Cathepsin C (Bos taurus, UniProt Q3ZCJ8).
T1 construct: Cathepsin C (Sigma C8511 from bovine spleen); purchased Sigma C8511; host or cells: bovine spleen (tissue-derived)
The assay is described as follows: Cathepsin C assay: light output of furimazine mono- or bis-Gly-Phe pro-substrate with Nanoluc, with and without Cathepsin C. The assay is classed as biochemical, bovine. Particulars: for Signal to Background: Cathepsin C vs none; for Background RLU: without Cathepsin C, Nanoluc. How it is done: Cathepsin C assay. To the solution of 50 μl of furimazine mono- or bis-Gly-Phe compound (50 μM) in 1:1 NanoGlo and nanopure water containing DTT 5 mM and 50 µL of 1 ng/mL Nanoluc buffer in 1:1 NanoGlo and nanopure water containing 5 mM DTT was added, then 10 μL of Cathepsin C (Sigma C8511 from bovine spleen) at final concentration of 0.1 U/well was added. The light output was measured over time. The background of pro-substrate was measured under same condition without adding Cathepsin C.
The synthesized coelenterazine analogues (compounds of formula (I)) were evaluated for their background and signal/background ratio.

SMILES strings stand for the structures.

T1 sequence (Q3ZCJ8 231-394 limits assumed): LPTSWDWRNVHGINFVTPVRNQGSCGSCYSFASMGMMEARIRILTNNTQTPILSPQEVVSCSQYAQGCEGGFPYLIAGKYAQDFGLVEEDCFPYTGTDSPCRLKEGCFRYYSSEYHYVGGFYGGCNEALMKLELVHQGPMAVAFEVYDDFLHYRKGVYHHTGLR
T1 sequence (Q3ZCJ8 25-134 limits assumed): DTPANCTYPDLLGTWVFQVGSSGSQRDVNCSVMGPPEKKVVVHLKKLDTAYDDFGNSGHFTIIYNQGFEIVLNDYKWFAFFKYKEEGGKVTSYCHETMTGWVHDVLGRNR
T1 sequence (Q3ZCJ8 395-463 limits assumed): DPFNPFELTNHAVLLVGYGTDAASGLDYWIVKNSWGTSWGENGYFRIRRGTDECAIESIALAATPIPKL

On to `NCC(=O)NC(Cc1ccccc1)C(=O)Nc1ccc(COc2c(Cc3ccco3)nc3c(Cc4ccccc4)nc(-c4ccccc4)cn23)cc1` (stereo not drawn) [WZ-0294, Gly-Phe-Aminobenzyl Furimazine], for which the “Signal to Background” value reads like this: (Time 5 min) 151; (Time 10 min) 163; (Time 20 min) 180; (Time 30 min) 197; (Time 40 min) 210; (Time 60 min) 232. The “Signal to Background” value reads like this: (Time 90 min) 255; (Time 120 min) 275; (Time 180 min) 273; (Time 240 min) 259; (Time 938 min) 142. For the same molecule, the “Background RLU” value is 8,974 RLU (Time 5 min); 9,538 RLU (Time 10 min); 10,825 RLU (Time 20 min); 11,741 RLU (Time 30 min); 12,664 RLU (Time 40 min); 14,295 RLU (Time 60 min). The “Background RLU” value is on record as 16,141 RLU (Time 90 min); 17,178 RLU (Time 120 min); 20,562 RLU (Time 180 min); 23,705 RLU (Time 240 min); 15,995 RLU (Time 938 min).
Consider `NCC(=O)NC(Cc1ccccc1)C(=O)Nc1ccc(COc2c(Cc3ccco3)nc3c(Cc4ccccc4)nc(-c4cccc(NC(=O)C(Cc5ccccc5)NC(=O)CN)c4)cn23)cc1` (stereo not drawn) [WZ-0299, Bis-Gly-Phe-Aminobenzyl Furimazine], for which the “background (in words)” value (FIG. 3, Tables 5 and 6) is recorded as “down to instrument noise”. The “Signal to Background” value reads like this: (Time 5 min) 751; (Time 10 min) 1,464; (Time 20 min) 2,256; (Time 30 min) 3,036; (Time 40 min) 3,941; (Time 60 min) 8,514. The “Signal to Background” value runs as follows: (Time 90 min) 11,997; (Time 120 min) 23,011; (Time 180 min) 29,836; (Time 240 min) 46,864; (Time 938 min) 17,386. The “Background RLU” value (Time 5 min) stood at 20 RLU; the “Background RLU” value (Time 10 min) is 21 RLU; the “Background RLU” value (Time 20 min) was found to be 18 RLU; the “Background RLU” value (Time 30 min) came to 14 RLU; the “Background RLU” value (Time 40 min) was 14 RLU; the “Background RLU” value (Time 60 min) was found to be 15 RLU. In addition, the “Background RLU” value (Time 90 min) is 16 RLU; the “Background RLU” value (Time 120 min) came to 12 RLU; the “Background RLU” value (Time 180 min) is reported as 17 RLU; the “Background RLU” value (Time 240 min) came to 15 RLU; the “Background RLU” value (Time 938 min) was 12 RLU. In addition, the “signal-to-background ratio (in words)” value (compared to mono-protected analogue WZ-0294) is recorded as “significantly higher”.
